Data published in ChEMBL document CHEMBL1697781, “Assessment of the health effects of chemicals in humans: II. Construction of an adverse effects database for QSAR modeling” (Curr Drug Discov Technol, 2004).

How the values were obtained:
Details in all cases: human; call rule not given here
Hepatotoxicity [1] = assay: FDA HLAED, liver enzyme composite activity
Hepatotoxicity [2] = assay: FDA HLAED, alkaline phosphatase increase
Hepatotoxicity [3] = assay: FDA HLAED, serum glutamic oxaloacetic transaminase (SGOT) increase
Hepatotoxicity [4] = assay: FDA HLAED, serum glutamic pyruvic transaminase (SGPT) increase
Hepatotoxicity [5] = assay: FDA HLAED, lactate dehydrogenase (LDH) increase
Hepatotoxicity [6] = assay: FDA HLAED, gamma-glutamyl transferase (GGT) increase
Wherever GGT Increase - Index Value is given: reference of the scale not given here.
Wherever LDH Increase - Index Value is given: reference of the scale not given here.

| Structure (SMILES) | Composite Activity - Active (Hepatotoxicity [1]) | Composite Activity - Marginal (Hepatotoxicity [1]) | Composite Activity - Score (Hepatotoxicity [1]) | Alkaline Phosphatase Increase - Activity Score (Hepatotoxicity [2]) | Alkaline Phosphatase Increase - Index Value (Hepatotoxicity [2]) | Alkaline Phosphatase Increase - Number of Reports (Hepatotoxicity [2]) | SGOT Increase - Activity Score (Hepatotoxicity [3]) | SGOT Increase - Index Value (Hepatotoxicity [3]) | SGOT Increase - Number of Reports (Hepatotoxicity [3]) | SGPT Increase - Activity Score (Hepatotoxicity [4]) | SGPT Increase - Index Value (Hepatotoxicity [4]) | SGPT Increase - Number of Reports (Hepatotoxicity [4]) | LDH Increase - Activity Score (Hepatotoxicity [5]) | LDH Increase - Index Value (Hepatotoxicity [5]) | LDH Increase - Number of Reports (Hepatotoxicity [5]) | GGT Increase - Activity Score (Hepatotoxicity [6]) | GGT Increase - Index Value (Hepatotoxicity [6]) | GGT Increase - Number of Reports (Hepatotoxicity [6]) | other results |
| --- | --- | --- | --- | --- | --- | --- | --- | --- | --- | --- | --- | --- | --- | --- | --- | --- | --- | --- | --- |
| CC(S)C(=O)NCC(=O)O (stereo unspecified) [TIOPRONIN] | 0 | 0 | Inactive | Inactive | 0 | < 4 | Inactive | 0 | < 4 | Inactive | 0 | < 4 | Inactive | 0 | < 4 | Inactive | 0 | < 4 | – |
| Clc1ccc2nsnc2c1NC1=NCCN1 [TIZANIDINE] | – | – | – | Inactive | 8.3 | < 4 | Inactive | 16.5 | < 4 | Active | 24.8 | < 4 | Inactive | 8.3 | < 4 | Inactive | 8.3 | < 4 | Composite Activity - Active (Hepatotoxicity [1]; Liver): 1; Composite Activity - Marginal (Hepatotoxicity [1]; Liver): 0; Composite Activity - Score (Hepatotoxicity [1]; Liver): Inactive |
| Cc1cccc(C)c1NC(=O)C(C)N (stereo unspecified) [TOCAINIDE] | 0 | 1 | Inactive | Inactive | 1.7 | >= 4 | Marginally Active | 3.5 | >= 4 | Inactive | 2.2 | >= 4 | Inactive | 1.7 | >= 4 | Inactive | 0 | < 4 | – |
| CC1(C)O[C@@H]2[C@@H](CO[C@@]3(COS(N)(=O)=O)OC(C)(C)O[C@@H]23)O1 [TOPIRAMATE] | 0 | 0 | Inactive | Inactive | 3.5 | < 4 | Inactive | 0 | < 4 | Inactive | 0 | < 4 | Inactive | 0 | < 4 | Inactive | 0 | < 4 | – |
| CC[C@@]1(O)C(=O)OCc2c1cc1n(c2=O)Cc2cc3c(CN(C)C)c(O)ccc3nc2-1 [TOPOTECAN] | 0 | 0 | Inactive | Inactive | 0 | < 4 | Inactive | 0 | < 4 | Inactive | 0 | < 4 | Inactive | 11.6 | < 4 | Inactive | 11.6 | < 4 | – |
| Cc1cccc(Nc2ccncc2S(=O)(=O)NC(=O)NC(C)C)c1 [TORSEMIDE] | 0 | 0 | Inactive | Inactive | 0 | < 4 | Inactive | 0.5 | < 4 | Inactive | 0.5 | < 4 | Inactive | 0 | < 4 | Inactive | 0 | < 4 | – |
| COc1cccc(C2(O)CCCCC2CN(C)C)c1 (stereo unspecified) [TRAMADOL] | 0 | 0 | Inactive | Inactive | 0.1 | < 4 | Inactive | 0.5 | >= 4 | Inactive | 0.8 | >= 4 | Inactive | 0.6 | >= 4 | Inactive | 0.2 | < 4 | – |
| CCOC(=O)[C@H](CCc1ccccc1)N[C@@H](C)C(=O)N1[C@H](C(=O)O)C[C@H]2CCCC[C@@H]21 [TRANDOLAPRIL] | 1 | 0 | Inactive | Inactive | 0 | < 4 | Inactive | 7 | < 4 | Marginally Active | 10.5 | < 4 | Inactive | 0 | < 4 | Inactive | 0 | < 4 | – |
| O=c1n(CCCN2CCN(c3cccc(Cl)c3)CC2)nc2ccccn12 [TRAZODONE] | 0 | 0 | Inactive | Inactive | 0.2 | < 4 | Inactive | 0.3 | < 4 | Inactive | 0 | < 4 | Inactive | 0.3 | < 4 | Inactive | 0 | < 4 | – |
| CC1=C(/C=C/C(C)=C/C=C/C(C)=C/C(=O)O)C(C)(C)CCC1 [TRETINOIN] | 0 | 0 | Inactive | Inactive | 1 | < 4 | Inactive | 0 | < 4 | Inactive | 0 | < 4 | Inactive | 1 | < 4 | Inactive | 1 | < 4 | – |
| Cc1nnc2n1-c1ccc(Cl)cc1C(c1ccccc1Cl)=NC2 [TRIAZOLAM] | 0 | 0 | Inactive | Inactive | 0.4 | < 4 | Inactive | 0.3 | < 4 | Inactive | 0 | < 4 | Inactive | 0 | < 4 | Inactive | 0 | < 4 | – |
| NCCNCCNCCN [TRIENTINE] | – | – | – | Inactive | 0 | < 4 | Inactive | 69.4 | < 4 | Inactive | 69.4 | < 4 | Inactive | 0 | < 4 | Inactive | 0 | < 4 | Composite Activity - Active (Hepatotoxicity [1]; Liver): 0; Composite Activity - Marginal (Hepatotoxicity [1]; Liver): 0; Composite Activity - Score (Hepatotoxicity [1]; Liver): Inactive |
